Reference: paper PMC3406087, “The Molecular Basis of Drug Resistance against Hepatitis C Virus NS3/4A Protease Inhibitors” (PLoS Pathogens, 2012)
Like-named read-outs stand apart in the source and are kept apart here.

What was measured:
[1] = test system: wild-type genotype 1a HCV Con1 luciferase reporter replicon in Huh7 cells; assay: Viral replicon-based inhibition assay, wild-type; format: cell-based, HCV genotype 1a; conditions: Hepatitis C virus, Huh-7, luciferase activity 96 hours after electroporation, read-out: Replicon - IC50, WT
Text: . The antiviral activities against the resistant variants trended with changes in binding affinities measured in enzyme inhibition assays (Table 1). […]. Single mutations (R155K, D168A, or A156T) were introduced into the NS3 region of genotype 1a HCV Con1 luciferase reporter replicon using the mega-primer method of mutagenesis. Replicon RNA of each protease variant was introduced into Huh7 cells by electroporation. […]. The drug concentrations required to inhibit replicon replication by 50% (IC50) were calculated directly from the drug inhibition curves.

[2] = test system: genotype 3 viruses; conditions: genotype 3 viruses (Q168, T123); cited from earlier work
[3] = test system: D168A genotype 1a HCV Con1 luciferase reporter replicon in Huh7 cells; assay: Viral replicon-based inhibition assay, D168A variant; format: cell-based, HCV genotype 1a; conditions: Hepatitis C virus, Huh-7, 96 h, read-out: Replicon - IC50, D168A
Text: (§1) Single mutations (R155K, D168A, or A156T) were introduced into the NS3 region of genotype 1a HCV Con1 luciferase reporter replicon using the mega-primer method of mutagenesis. Replicon RNA of each protease variant was introduced into Huh7 cells by electroporation.

[4] = test system: A156T genotype 1a HCV Con1 luciferase reporter replicon in Huh7 cells; assay: Viral replicon-based inhibition assay, A156T variant; format: cell-based, HCV genotype 1a; conditions: Hepatitis C virus, Huh-7, 96 h, read-out: Replicon - IC50, A156T
Text: as §1

[5] = target: genotype 1a HCV NS3/4A protease domain (wild-type) (Hepatitis C virus genotype 1a, UniProt A8DG50); assay: biochemical; set-up: species or system HCV genotype 1a
[6] = test system: R155K genotype 1a HCV Con1 luciferase reporter replicon in Huh7 cells; assay: Viral replicon-based inhibition assay, R155K variant; format: cell-based, HCV genotype 1a; conditions: Hepatitis C virus, Huh-7, 96 h, read-out: Replicon - IC50, R155K
Text: as §1

[7] = target: T1, genotype 1a HCV NS3/4A protease domain A156T (Hepatitis C virus genotype 1a, UniProt P27958, A1182T); assay: biochemical; set-up: species or system HCV genotype 1a
T1 construct: single-chain construct of the genotype 1a NS3/4A protease domain; His-tag (cleaved yes); made in house; host or cells: E. coli BL21 (DE3)

[8] = apparent Ki, Morrison equation, 5 nM protease, triplicate, average ± standard deviation, read-out: Binding - Ki, WT

Row | Compound | IC50 [1] | Efficacy against genotype 3 viruses [2] | IC50 [3] | IC50 [4] | Ki [5, 8] | IC50 [6] | Ki [7] | Ki [5]
1 | CC[C@@H]1C[C@]1(NC(=O)[C@@H]1C[C@@H]2CN1C(=O)[C@H](C(C)(C)C)NC(=O)OCC(C)(C)CCCCc1cccc3c1CN(C3)C(=O)O2)C(=O)NS(=O)(=O)C1CC1 [Vaniprevir (MK-7009), Vaniprevir] | 0.34 nM | reduced efficacy | > 400 nM | 176 nM | 0.74 ± 0.07 nM | > 400 nM |  | 
2 | C=C[C@@H]1C[C@]1(NC(=O)[C@@H]1C[C@@H]2CN1C(=O)[C@H](C(C)(C)C)NC(=O)O[C@@H]1C[C@H]1CCCCCc1nc3ccc(OC)cc3nc1O2)C(=O)NS(=O)(=O)C1CC1 [MK-5172] | 0.11 nM |  | 13 nM | 108 nM |  | 0.55 nM |  | 
3 | CC(C)(C)OC(=O)N[C@H]1CCCCC/C=C\[C@@H]2C[C@@]2(C(=O)NS(=O)(=O)C2CC2)NC(=O)[C@@H]2C[C@@H](OC(=O)N3Cc4cccc(F)c4C3)CN2C1=O [Danoprevir (ITMN-191), Danoprevir] | 0.24 nM | reduced efficacy | 48 nM | 5.7 nM | 1 ± 0.1 nM | > 100 nM | 44.8 ± 3.6 nM | 
4 | CCC[C@H](NC(=O)[C@@H]1[C@H]2CCC[C@H]2CN1C(=O)[C@@H](NC(=O)[C@@H](NC(=O)c1cnccn1)C1CCCCC1)C(C)(C)C)C(=O)C(=O)NC1CC1 [Telaprevir (VX-950), Telaprevir] | 1030 nM |  | 420 nM | > 50000 nM |  | 5300 nM |  | 34.4 ± 3 nM
